Measurements published in patent publication US8143301B2, “Hepatitis C virus inhibitors” (Bristol Myers Squibb Company, priority 2009, dated 2012).
Where two headings read alike, the source gives them in different places.

Test system: HCV 1b genotype
Assay: HCV Replicon assay, 1b genotype
Format: cell-based
Settings: Hepatitis C virus, HCV 1b genotype replicon
Description: An HCV Replicon assay was utilized in the present disclosure, and was prepared, conducted and validated as described in commonly owned PCT/US2006/022197 and in O'Boyle et. al. Antimicrob Agents Chemother. 2005 April; 49(4):1346-53. Assay methods incorporating luciferase reporters have also been used as described (Apath.com).
HCV-neo replicon cells and replicon cells containing mutations in the NS5A region were used to test the currently described family of compounds. The compounds were determined to have more than 10-fold less inhibitory activity on cells containing mutations than wild-type cells. Thus, the compounds of the present disclosure can be effective in inhibiting the function of the HCV NS5A protein and are understood to be as effective in combinations as previously described in application PCT/US2006/022197 and commonly owned WO/O4014852. Further, the compounds of the present disclosure can be effective against the HCV 1b genotype. It should also be understood that the compounds of the present disclosure can inhibit multiple genotypes of HCV. […] In one embodiment, compounds of the present disclosure are inhibitory versus 1a, 1b, 2a, 2b, 3a, 4a, and 5a genotypes.

Row | SMILES | EC50 (read-out: 1b EC50) | EC50 (read-out: 1b EC50 in Range)
1 | COC(=O)N[C@H](C(=O)N1[C@H](c2ncc(-c3ccc(-c4ccc(-c5cnc([C@@H]6CCN(C)N6C(=O)[C@@H](NC(=O)OC)C(C)C)[nH]5)cc4)cc3)[nH]2)CCN1C)C(C)C [Example 1, methyl ((1S)-1-(((5S)-5-(5-(4′-(2-((3S)-2-((2S)-2-((methoxycarbonyl)amino)-3-methylbutanoyl)-1-methyl-3-pyrazolidinyl)-1H-imidazol-5-yl)-4-biphenylyl)-1H-imidazol-2-yl)-2-methyl-1-pyrazolidinyl)carbonyl)-2-methylpropyl)carbamate] | 0.003 nM | –
2 | COC(=O)N[C@H](C(=O)N1[C@H](c2ncc(-c3ccc(C#Cc4ccc(-c5cnc([C@@H]6CCN(C)N6C(=O)[C@@H](NC(=O)OC)C(C)C)[nH]5)cc4)cc3)[nH]2)CCN1C)C(C)C [Example 8, methyl ((1S)-1-(((5S)-5-(5-(4-((4-(2-((3S)-2-((2S)-2-((methoxycarbonyl)amino)-3-methylbutanoyl)-1-methyl-3-pyrazolidinyl)-1H-imidazol-5-yl)phenyl)ethynyl)phenyl)-1H-imidazol-2-yl)-2-methyl-1-pyrazolidinyl)carbonyl)-2-methylpropyl)carbamate] | 0.2 nM | 0.101 to 0.999 nM
3 | O=C(OCc1ccccc1)N1CCCN1c1nc(-c2ccc(-c3ccc(-c4c[nH]c(N5CCCN5C(=O)OCc5ccccc5)n4)cc3)cc2)c[nH]1 [Example 10, dibenzyl 2,2′-(4,4′-biphenyldiylbis(1H-imidazole-4,2-diyl))di(1-pyrazolidinecarboxylate)] | – | 1 to 99 nM
4 | COC(=O)N[C@H](C(=O)N1CCCN1c1nc(-c2ccc(-c3ccc(-c4c[nH]c(N5CCCN5C(=O)[C@@H](NC(=O)OC)C(C)C)n4)cc3)cc2)c[nH]1)C(C)C [Example 11, methyl ((1S)-1-((2-(4-(4′-(2-(2-((2S)-2-((methoxycarbonyl)amino)-3-methylbutanoyl)-1-pyrazolidinyl)-1H-imidazol-4-yl)-4-biphenylyl)-1H-imidazol-2-yl)-1-pyrazolidinyl)carbonyl)-2-methylpropyl)carbamate] | < 13.7 nM | 1 to 99 nM
5 | COC(=O)N[C@@H](C(=O)N1CCCN1c1nc(-c2ccc(-c3ccc(-c4c[nH]c(N5CCCN5C(=O)[C@H](NC(=O)OC)c5ccccc5)n4)cc3)cc2)c[nH]1)c1ccccc1 [Example 12, dimethyl (4,4′-biphenyldiylbis(1H-imidazole-4,2-diyl-2,1-pyrazolidinediyl((1R)-2-oxo-1-phenyl-2,1-ethanediyl)))biscarbamate] | – | 0.101 to 0.999 nM
